Test results taken from patent publication US20240225053A9 (priority 2021, published 2024).
Read-outs that look alike come from different tables or passages of the source.

Key:
Assay type in all cases: cell-based
[1] = test system: Clostridium perfringens ATCC10873; set-up: unit not given here; conditions: bacterial cells, 500 mM, 8 hours, diluted 100 times
[2] = test system: Clostridium perfringens ATCC10873; set-up: key to Settling: Good: Settling effect observed; Poor: No settling effect observed; conditions: for Settling: 37° C., 8 hours
[3] = test system: Clostridium perfringens ATCC10873; set-up: key: Good: Agglomeration effect observed; Poor: No agglomeration effect observed
[4] = test system: Lactobacillus casei ATCC393; set-up: key to Agglomeration: Good: Those in which agglomeration observed under upright microscope; Poor: Those in which no agglomeration observed under upright microscope
[5] = test system: mixed bacterial cells of Clostridium perfringens ATCC10873, Salmonella enterica IAM1648 and E. coli MG1655; conditions: 500 mM in combination with Arabic Gum 1%; OD660 about 2.0, 37° C.
[6] = test system: Escherichia coli MG1655; set-up: key: Good: Those in which agglomeration observed under upright microscope; Poor: Those in which no agglomeration observed under upright microscope
[7] = test system: Clostridium perfringens SM101; set-up: unit not given here; conditions: bacterial cells, 500 mM, 8 hours, diluted 100 times
[8] = test system: Clostridium perfringens strain SM101; conditions: KCl 500 mM
[9] = test system: Clostridium perfringens ATCC10873; conditions: for Shape: 8 hours
[10] = test system: Clostridium perfringens SM101 (CPE toxin producer); set-up: key to Agglomeration: Good: Agglomeration effect observed; Poor: No agglomeration effect observed; conditions: 500 mM
[11] = test system: Salmonella enterica IAM1648; set-up: key: Good: Those in which agglomeration observed under upright microscope; Poor: Those in which no agglomeration observed under upright microscope
[12] = test system: Clostridium perfringens ATCC10873; set-up: key: Good: Those in which agglomeration observed under upright microscope; Poor: Those in which no agglomeration observed under upright microscope; conditions: Table 4, 500 mM
[13] = test system: Clostridium perfringens CNEOP004; set-up: unit not given here; conditions: bacterial cells, 500 mM, 8 hours, diluted 100 times
[14] = test system: Clostridium perfringens CNEOP004 (netB toxin producer); set-up: key to Agglomeration: Good: Agglomeration effect observed; Poor: No agglomeration effect observed; conditions: 500 mM
[15] = test system: Bifidobacterium animalis JCM1190; set-up: key to Agglomeration: Good: Those in which agglomeration observed under upright microscope; Poor: Those in which no agglomeration observed under upright microscope
[16] = absence of AG, Example 2 strains

[Cl-].[K+] [KCl]
Zeta potential ([1]; W/AG 1%): −10.2
Zeta potential ([1]; without AG): −29.0
Settling ([2]; 100 mM, without AG): Good
Settling ([2]; 500 mM, w/AG 1%): Good
Settling ([2]; 500 mM, without AG): Good
Concentration required for settling / at which settling was confirmed ([2]; absence of AG, optical density about 2.0 at 660 nm): ≥ 100 mM
Agglomeration ([3]; Table 2-1, 100 mM, without AG, 8 hours): Poor
Agglomeration ([3]; Table 2-1, 500 mM, w/AG 1%, 8 hours): Good
Agglomeration ([3]; Table 2-1, 500 mM, without AG, 8 hours): Poor
Agglomeration ([3]; Table 3-1, 500 mM, W/AG 1%): Good
Agglomeration ([3]; Table 3-1, 500 mM, without AG): Poor
Agglomeration [4]: Poor
Agglomeration effect [4]: not exerted
Agglomeration of the three types of enteric bad bacteria [5]: can quickly agglomerate
Agglomeration [6]: Poor and Good
Zeta potential ([7]; w/AG 1%): −26.5
Zeta potential ([7]; without AG): −30.2
Nature of cocci (vegetative cells or spores) under phase-contrast microscope [8]: not spores
Shape ([9]; 100 mM, without AG): Spheroidal
Shape ([9]; 500 mM, w/AG 1%): Spheroidal
Shape ([9]; 500 mM, without AG): Spheroidal
Agglomeration (text) [9, 16]: did not agglomerate
Shape of the bacterial cells [9, 16]: changed from bacilli to cocci
Agglomeration (text) ([9]; coexistence with AG, Example 2 strains): agglomerated in the state of cocci
Shape ([10]; w/AG 1%, 8 hours): Spheroidal
Shape ([10]; without AG, 8 hours): Spheroidal
Agglomeration ([10]; Table 2-2, w/AG 1%, 8 hours): Good
Agglomeration ([10]; Table 2-2, without AG, 8 hours): Poor
Agglomeration ([10]; Table 3-2, w/AG 1%): Good
Agglomeration ([10]; Table 3-2, without AG): Poor
Agglomeration [11]: Poor and Good
Agglomeration ([12]; W/AG 1%): Good
Agglomeration ([12]; without AG): Poor
Zeta potential ([13]; w/AG 1%): −23
Zeta potential ([13]; without AG): −25
Shape ([14]; w/AG 1%, 8 hours): Spheroidal
Shape ([14]; without AG, 8 hours): Spheroidal
Agglomeration ([14]; Table 2-3, w/AG 1%, 8 hours): Good
Agglomeration ([14]; Table 2-3, without AG, 8 hours): Poor
Agglomeration ([14]; Table 3-3, w/AG 1%): Good
Agglomeration ([14]; Table 3-3, without AG): Poor
Agglomeration [15]: Poor
Agglomeration effect [15]: not exerted
